Measured values from patent US12565489B2, “Heterocyclyl pyrimidines and triazines as novel fungicides” (Bayer Aktiengesellschaft, priority 2020, dated 2026).

Columns and labels:
Botrytis cinerea = Botrytis cinerea in vitro cell test; format: cell-based; details: 144 h, 20 ppm of active ingredient, 6 days incubation, liquid culture, spectrometric measurement of mycelium growth, read-out: efficacy (inhibition of fungal growth)
In short: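 B. cinerea spore suspension grown in defined liquid mineral/sucrose medium with DMSO-dissolved compounds for 6 days. Mycelial growth was measured by absorbance, and inhibition was derived relative to fungicide-free control wells.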

Sphaerotheca fuliginea = assay: In vivo preventive test on Sphaerotheca fuliginea (powdery mildew on cucurbits); details: Podosphaera fuliginea, 192 h; 500 ppm of active ingredient; preventive spray on young gherkin plants; evaluated 8 days after inoculation; read-out: efficacy
In short: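 Young gherkin plants were sprayed preventively with compound dissolved in DMSO/acetone/Tween 80 and diluted in water; controls got solvent only. Leaves were inoculated 24 hours later with an aqueous Sphaerotheca fuliginea spore suspension.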

[1] = system: Colletotrichum lindemuthianum; assay: Colletotrichum lindemuthianum in vitro cell test; format: cell-based; details: 144 h, 20 ppm of active ingredient, 6 days incubation, liquid culture, spectrometric measurement of mycelium growth, read-out: efficacy (inhibition of fungal growth)
In short: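 C. lindemuthianum spores were incubated with DMSO-solubilized compounds in liquid glucose-peptone-yeast extract medium, scoring inhibition of germination and mycelial growth. Mycelial growth was measured spectrometrically after 6 days. Inhibition was calculated from absorbance relative to compound-free control wells.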

Pyrenophora teres = Pyrenophora teres in vitro cell test; format: cell-based; details: 144 h, 20 ppm of active ingredient, 6 days incubation, liquid culture, spectrometric measurement of mycelium growth, read-out: efficacy (inhibition of fungal growth)
In short: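 Spore suspension grown in liquid glucose–peptone–yeast extract medium with compound added from DMSO solution. Mycelium growth read by absorbance after 6 days. Inhibition is relative to compound-free control wells.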

Alternaria brassicae = assay: In vivo preventive test on Alternaria brassicae (leaf spot on radish or cabbage); details: 144 h, 500 ppm of active ingredient, preventive spray on young radish or cabbage plants, evaluated 6 days after inoculation, read-out: efficacy
Septoria tritici = Septoria tritici in vitro cell test; format: cell-based; details: Zymoseptoria tritici, 168 h; 20 ppm of active ingredient; 7 days incubation; liquid culture, spectrometric measurement of mycelium growth; read-out: efficacy (inhibition of fungal growth)
In short: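 Liquid culture of S. tritici spore suspension in defined mineral/sucrose medium with compounds added from DMSO solutions; measures inhibition of spore germination and mycelial growth. Growth inhibition derived from absorbance relative to untreated control wells.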

[2] = Measurement of Log P values by HPLC on reversed phase columns (EEC directive 79/831 Annex V.A8); format: physicochemical; details: LogP
In short: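 Reversed-phase HPLC per EEC directive 79/831 Annex V.A8 with UV detection, 10→95% acetonitrile linear gradient; eluent either 0.1% formic acid (acidic), 0.001 molar ammonium acetate (neutral) or 0.1% phosphoric acid (acidic). Calibrated with C3–C16 straight-chain alkan-2-ones by linear interpolation of retention times; multiple values joined by "+".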

C#Cc1ccc(CC2CON=C(c3nc(C)ncc3Oc3cccc(C(F)(F)F)c3)N2)c(C)c1 (racemic) [Compound I-026, (5RS)-5-[(4-ethynyl-2-methyl-phenyl)methyl]-3-[2-methyl-5-[3-(trifluoromethyl)phenoxy]pyrimidin-4-yl]-5,6-dihydro-4H-1,2,4-oxadiazine]
90 to 100%: inhibition at 20 ppm (Botrytis cinerea) | pest or weed control at 500 ppm (Sphaerotheca fuliginea) | inhibition at 20 ppm [1] | inhibition at 20 ppm (Pyrenophora teres) | pest or weed control at 500 ppm (Alternaria brassicae) | inhibition at 20 ppm (Septoria tritici)
3.99: chromatographic logP [2]

Cc1ncc(Oc2cccc(C(F)(F)F)c2)c(C2=NOCC(Cc3ccc(Br)cc3C)N2)n1 (racemic) [Compound I-021, (5RS)-5-[(4-bromo-2-methyl-phenyl)methyl]-3-[2-methyl-5-[3-(trifluoro-methyl)phenoxy]pyrimidin-4-yl]-5,6-dihydro-4H-1,2,4-oxadiazine]
90 to 100%: inhibition at 20 ppm (Botrytis cinerea) | pest or weed control at 500 ppm (Sphaerotheca fuliginea) | inhibition at 20 ppm [1] | inhibition at 20 ppm (Pyrenophora teres) | pest or weed control at 500 ppm (Alternaria brassicae) | inhibition at 20 ppm (Septoria tritici)
4.48: chromatographic logP [2]

Cc1ccc(CC2CON=C(c3nc(C)ncc3Oc3cccc(C(F)(F)F)c3)N2)c(C)c1 (racemic) [Compound I-002, (5RS)-5-(2,4-dimethylbenzyl)-3-{2-methyl-5-[3-(trifluoro-methyl)phenoxy]pyrimidin-4-yl}-5,6-dihydro-4H-1,2,4-oxadiazine]
4.33: chromatographic logP [2]
90 to 100%: inhibition at 20 ppm (Botrytis cinerea) | pest or weed control at 500 ppm (Sphaerotheca fuliginea) | inhibition at 20 ppm [1] | inhibition at 20 ppm (Pyrenophora teres) | pest or weed control at 500 ppm (Alternaria brassicae) | inhibition at 20 ppm (Septoria tritici)

Cc1ccc(C[C@@H]2CON=C(c3nc(C)ncc3Oc3cccc(C4CC4)c3F)N2)c(C)c1 (racemic) [Compound I-016]
90 to 100%: inhibition at 20 ppm (Botrytis cinerea) | pest or weed control at 500 ppm (Sphaerotheca fuliginea) | inhibition at 20 ppm [1] | inhibition at 20 ppm (Pyrenophora teres) | pest or weed control at 500 ppm (Alternaria brassicae) | inhibition at 20 ppm (Septoria tritici)
4.41: chromatographic logP [2]

C#Cc1cccc(Oc2cnc(C)nc2C2=NOC[C@@H](Cc3ccc(C)cc3C)N2)c1 (racemic) [Compound I-025]
3.85: chromatographic logP [2]
90 to 100%: inhibition at 20 ppm (Botrytis cinerea) | pest or weed control at 500 ppm (Sphaerotheca fuliginea) | inhibition at 20 ppm [1] | inhibition at 20 ppm (Pyrenophora teres) | pest or weed control at 500 ppm (Alternaria brassicae) | inhibition at 20 ppm (Septoria tritici)

Cc1ccc(C[C@@H]2CON=C(c3nc(C)ncc3Oc3cccc(C(F)(F)F)c3)N2)c(Cl)c1 (racemic) [Compound I-013]
4.47: chromatographic logP [2]
90 to 100%: inhibition at 20 ppm (Botrytis cinerea) | pest or weed control at 500 ppm (Sphaerotheca fuliginea) | inhibition at 20 ppm [1] | inhibition at 20 ppm (Pyrenophora teres) | pest or weed control at 500 ppm (Alternaria brassicae) | inhibition at 20 ppm (Septoria tritici)

Cc1ccc(CC2CON=C(c3nc(C4CC4)ncc3Oc3cccc(C(F)(F)F)c3)N2)c(C)c1 (racemic) [Compound I-001, (5RS)-3-{2-cyclopropyl-5-[3-(trifluoro-methyl)phenoxy]pyrimidin-4-yl}-5-(2,4-dimethylbenzyl)-5,6-dihydro-4H-1,2,4-oxadiazine]
90 to 100%: inhibition at 20 ppm (Botrytis cinerea) | pest or weed control at 500 ppm (Sphaerotheca fuliginea) | inhibition at 20 ppm [1] | inhibition at 20 ppm (Pyrenophora teres) | pest or weed control at 500 ppm (Alternaria brassicae) | inhibition at 20 ppm (Septoria tritici)
5.16: chromatographic logP [2]

CSc1ncc(Oc2cccc(C(F)(F)F)c2)c(C2=NOC[C@@H](Cc3ccc(C)cc3C)N2)n1 (racemic) [Compound I-017]
5.09: chromatographic logP [2]
90 to 100%: inhibition at 20 ppm (Botrytis cinerea) | pest or weed control at 500 ppm (Sphaerotheca fuliginea) | inhibition at 20 ppm [1] | inhibition at 20 ppm (Pyrenophora teres) | pest or weed control at 500 ppm (Alternaria brassicae)
70 to 79%: inhibition at 20 ppm (Septoria tritici)

COc1cccc(Oc2cnc(C)nc2C2=NOC[C@@H](Cc3ccc(C)cc3C)N2)c1 (racemic) [Compound I-032]
3.66: chromatographic logP [2]
90 to 100%: inhibition at 20 ppm (Botrytis cinerea) | pest or weed control at 500 ppm (Sphaerotheca fuliginea) | inhibition at 20 ppm [1] | inhibition at 20 ppm (Pyrenophora teres) | pest or weed control at 500 ppm (Alternaria brassicae) | inhibition at 20 ppm (Septoria tritici)

Cc1ccc(C[C@@H]2CON=C(c3nc(C)ncc3Oc3cccc(Cl)c3)N2)c(C)c1 (racemic) [Compound I-023]
90 to 100%: inhibition at 20 ppm (Botrytis cinerea) | pest or weed control at 500 ppm (Sphaerotheca fuliginea) | inhibition at 20 ppm [1] | inhibition at 20 ppm (Pyrenophora teres) | pest or weed control at 500 ppm (Alternaria brassicae)
4.15: chromatographic logP [2]
80 to 89%: inhibition at 20 ppm (Septoria tritici)

Cc1ccc(C[C@@H]2CON=C(c3nc(C)ncc3Oc3cccc(C4CC4)c3)N2)c(C)c1 (racemic) [Compound I-024]
90 to 100%: inhibition at 20 ppm (Botrytis cinerea) | pest or weed control at 500 ppm (Sphaerotheca fuliginea) | inhibition at 20 ppm [1] | inhibition at 20 ppm (Pyrenophora teres) | pest or weed control at 500 ppm (Alternaria brassicae) | inhibition at 20 ppm (Septoria tritici)
4.55: chromatographic logP [2]
